We go through one compound from paper PMC4177084 (Journal of Thyroid Research, 2014).

In data set [1] the target is T1, PIM1 (Homo sapiens, UniProt P11309).
T1 construct: purchased Carna Biosciences, Inc. (Kobe, Japan)
Briefly: Cell free kinase inhibition assay. In kind it is biochemical.

In data set [2] the target is T2, CHK1 (Homo sapiens, UniProt O14757).
T2 construct: purchased Carna Biosciences, Inc. (Kobe, Japan)
Briefly: Cell free kinase inhibition assay. In kind it is biochemical.

Data set [3] addresses T3, EPHB3 (Homo sapiens, UniProt P54753).
T3 construct: purchased Carna Biosciences, Inc. (Kobe, Japan)
Briefly: Cell free kinase inhibition assay. It counts as biochemical.

The test system of data set [4] is TT cells. Briefly: Antiproliferation assay (WST-8). The settings on record: Homo sapiens, 240 h; TT (MTC), antiproliferative, 10 days; read-out: IC50. It counts as cell-based. On the technique in general: Tetrazolium assays rely on reduction of a dye to a coloured formazan, in cell work by metabolically active cells.
The target in data set [5] is T4, CDK4 (Homo sapiens, UniProt P11802).
T4 construct: purchased Carna Biosciences, Inc. (Kobe, Japan)
Briefly: Cell free kinase inhibition assay. It counts as biochemical.

Data set [6] deals with T5, FAK (Homo sapiens, UniProt Q05397).
T5 construct: purchased Carna Biosciences, Inc. (Kobe, Japan)
T5 sequence (Q05397 whole entry): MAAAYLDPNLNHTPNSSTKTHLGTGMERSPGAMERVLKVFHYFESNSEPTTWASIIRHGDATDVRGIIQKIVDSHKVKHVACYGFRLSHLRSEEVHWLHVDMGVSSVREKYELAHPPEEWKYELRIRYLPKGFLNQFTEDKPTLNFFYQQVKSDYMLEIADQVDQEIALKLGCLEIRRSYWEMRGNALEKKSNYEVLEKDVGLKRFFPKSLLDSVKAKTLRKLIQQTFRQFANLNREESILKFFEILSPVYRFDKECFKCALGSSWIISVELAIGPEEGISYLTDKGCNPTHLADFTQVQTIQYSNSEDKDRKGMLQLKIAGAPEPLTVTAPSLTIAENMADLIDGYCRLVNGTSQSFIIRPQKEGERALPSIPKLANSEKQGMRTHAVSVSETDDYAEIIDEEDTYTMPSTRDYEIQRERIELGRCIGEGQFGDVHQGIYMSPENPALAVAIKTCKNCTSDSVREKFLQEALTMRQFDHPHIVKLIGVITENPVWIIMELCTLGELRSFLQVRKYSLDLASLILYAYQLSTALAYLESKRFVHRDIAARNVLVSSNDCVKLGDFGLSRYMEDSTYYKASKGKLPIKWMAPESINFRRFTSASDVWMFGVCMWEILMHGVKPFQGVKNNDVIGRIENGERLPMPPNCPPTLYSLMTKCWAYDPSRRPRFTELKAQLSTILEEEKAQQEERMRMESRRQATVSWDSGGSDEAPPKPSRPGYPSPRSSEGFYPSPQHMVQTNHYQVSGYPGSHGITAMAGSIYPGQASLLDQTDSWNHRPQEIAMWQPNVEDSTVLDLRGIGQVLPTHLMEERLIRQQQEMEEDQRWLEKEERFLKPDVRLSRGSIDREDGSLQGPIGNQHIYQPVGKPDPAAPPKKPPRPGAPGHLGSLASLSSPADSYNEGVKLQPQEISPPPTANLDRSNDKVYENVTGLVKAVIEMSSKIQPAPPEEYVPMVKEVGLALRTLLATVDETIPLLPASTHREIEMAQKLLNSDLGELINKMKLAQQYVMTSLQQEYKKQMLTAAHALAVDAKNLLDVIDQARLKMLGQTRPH
Briefly: Cell free kinase inhibition assay. It counts as biochemical.

A short description of data set [7]: Macroscopic changes and body weight during treatment of xenograft-bearing mice. It counts as in vivo. The settings on record: nude mice bearing xenografts, during daily oral treatment. As to the method: Tumor cells were cultured in appropriate culture mediums. Cells were harvested with 0.05% or 0.25% (w/v) trypsin/EDTA and suspended with 50% (v/v) BD Matrigel (BD Biosciences, San Jose, CA) in the mixture of culture mediums at a density of 5–10 × 10^7 cells/mL. Then, 0.1-0.2 mL of the cell suspension was inoculated subcutaneously into the right flank region of each mouse. […] The tumor size was measured in two dimensions by using a caliper, and the volume was calculated by using the formula: tumor volume (mm^3) = 1/2 length (mm) × [width (mm)]^2. The change in tumor volume in the treated group relative to that in the control group was calculated according to the following formula: ΔT/C = (ΔT/ΔC) × 100%, where ΔT and ΔC are the change in tumor volume (i.e., growth) for the treated and vehicle control group, respectively. The percentage of tumor growth inhibition (%TGI) was calculated from the formula: [(1 − ΔT/ΔC) × 100].

Data set [8] concerns RET (C634W) and ERK1/2. Briefly: Western blot of RET phosphorylation in TT cells. The settings on record: cultured TT cells, 1 h treatment. On the technique in general: In western blotting, separated proteins are transferred to a membrane and probed.
Data set [9] deals with T6, HER2 (Homo sapiens, UniProt P04626).
T6 construct: purchased Carna Biosciences, Inc. (Kobe, Japan)
T6 sequence (P04626 23-1255): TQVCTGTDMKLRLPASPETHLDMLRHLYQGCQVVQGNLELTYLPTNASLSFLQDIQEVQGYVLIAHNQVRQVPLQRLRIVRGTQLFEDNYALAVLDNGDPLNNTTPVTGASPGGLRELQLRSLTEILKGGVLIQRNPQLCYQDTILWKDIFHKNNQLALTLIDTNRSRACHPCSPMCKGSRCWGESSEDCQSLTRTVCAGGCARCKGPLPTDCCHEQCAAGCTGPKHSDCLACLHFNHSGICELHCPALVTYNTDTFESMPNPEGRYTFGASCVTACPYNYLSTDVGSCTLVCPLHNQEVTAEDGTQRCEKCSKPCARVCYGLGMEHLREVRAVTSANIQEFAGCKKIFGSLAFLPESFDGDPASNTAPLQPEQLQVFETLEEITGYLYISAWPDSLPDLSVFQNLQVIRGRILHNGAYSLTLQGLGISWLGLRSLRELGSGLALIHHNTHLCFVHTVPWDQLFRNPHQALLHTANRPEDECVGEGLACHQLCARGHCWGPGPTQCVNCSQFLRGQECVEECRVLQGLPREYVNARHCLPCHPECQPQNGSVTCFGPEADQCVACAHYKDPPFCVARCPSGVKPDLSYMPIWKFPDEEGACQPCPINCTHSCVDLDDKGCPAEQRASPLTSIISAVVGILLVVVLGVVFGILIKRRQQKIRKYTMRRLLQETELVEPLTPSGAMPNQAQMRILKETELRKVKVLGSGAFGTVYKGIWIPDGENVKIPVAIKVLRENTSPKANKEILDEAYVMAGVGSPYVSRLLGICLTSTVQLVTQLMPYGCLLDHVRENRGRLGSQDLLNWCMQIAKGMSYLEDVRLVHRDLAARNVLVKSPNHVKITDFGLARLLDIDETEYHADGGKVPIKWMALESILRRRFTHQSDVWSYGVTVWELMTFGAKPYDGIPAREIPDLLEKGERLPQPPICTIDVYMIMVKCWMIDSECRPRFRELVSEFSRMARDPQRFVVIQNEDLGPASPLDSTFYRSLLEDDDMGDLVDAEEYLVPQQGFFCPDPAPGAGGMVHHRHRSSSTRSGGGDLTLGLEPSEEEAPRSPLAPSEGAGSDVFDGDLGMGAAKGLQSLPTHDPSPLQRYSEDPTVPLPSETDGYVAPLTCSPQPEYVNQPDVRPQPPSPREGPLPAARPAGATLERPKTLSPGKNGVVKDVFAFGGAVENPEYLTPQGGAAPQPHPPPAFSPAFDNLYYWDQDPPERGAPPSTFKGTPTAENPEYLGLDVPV
Briefly: Cell free kinase inhibition assay. It counts as biochemical.

In data set [10] the target is T7, p70S6K (Homo sapiens, UniProt P23443).
T7 construct: purchased Carna Biosciences, Inc. (Kobe, Japan)
T7 sequence (P23443 whole entry): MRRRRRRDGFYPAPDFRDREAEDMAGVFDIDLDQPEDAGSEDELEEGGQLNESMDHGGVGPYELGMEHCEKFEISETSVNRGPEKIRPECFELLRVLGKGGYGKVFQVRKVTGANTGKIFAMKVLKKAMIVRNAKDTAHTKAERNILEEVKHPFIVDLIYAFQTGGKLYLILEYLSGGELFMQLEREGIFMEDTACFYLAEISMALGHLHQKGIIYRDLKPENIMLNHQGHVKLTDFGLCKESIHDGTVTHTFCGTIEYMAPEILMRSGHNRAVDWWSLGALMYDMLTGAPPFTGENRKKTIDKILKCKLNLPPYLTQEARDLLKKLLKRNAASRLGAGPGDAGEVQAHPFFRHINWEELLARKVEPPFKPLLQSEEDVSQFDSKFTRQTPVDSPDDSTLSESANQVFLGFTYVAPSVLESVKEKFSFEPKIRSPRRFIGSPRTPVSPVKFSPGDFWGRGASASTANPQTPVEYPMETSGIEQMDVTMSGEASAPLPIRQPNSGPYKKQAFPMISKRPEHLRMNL
Briefly: Cell free kinase inhibition assay. It counts as biochemical.

Where only a bound is given, the exact number is not on record here.

T3 sequence (P54753 34-998): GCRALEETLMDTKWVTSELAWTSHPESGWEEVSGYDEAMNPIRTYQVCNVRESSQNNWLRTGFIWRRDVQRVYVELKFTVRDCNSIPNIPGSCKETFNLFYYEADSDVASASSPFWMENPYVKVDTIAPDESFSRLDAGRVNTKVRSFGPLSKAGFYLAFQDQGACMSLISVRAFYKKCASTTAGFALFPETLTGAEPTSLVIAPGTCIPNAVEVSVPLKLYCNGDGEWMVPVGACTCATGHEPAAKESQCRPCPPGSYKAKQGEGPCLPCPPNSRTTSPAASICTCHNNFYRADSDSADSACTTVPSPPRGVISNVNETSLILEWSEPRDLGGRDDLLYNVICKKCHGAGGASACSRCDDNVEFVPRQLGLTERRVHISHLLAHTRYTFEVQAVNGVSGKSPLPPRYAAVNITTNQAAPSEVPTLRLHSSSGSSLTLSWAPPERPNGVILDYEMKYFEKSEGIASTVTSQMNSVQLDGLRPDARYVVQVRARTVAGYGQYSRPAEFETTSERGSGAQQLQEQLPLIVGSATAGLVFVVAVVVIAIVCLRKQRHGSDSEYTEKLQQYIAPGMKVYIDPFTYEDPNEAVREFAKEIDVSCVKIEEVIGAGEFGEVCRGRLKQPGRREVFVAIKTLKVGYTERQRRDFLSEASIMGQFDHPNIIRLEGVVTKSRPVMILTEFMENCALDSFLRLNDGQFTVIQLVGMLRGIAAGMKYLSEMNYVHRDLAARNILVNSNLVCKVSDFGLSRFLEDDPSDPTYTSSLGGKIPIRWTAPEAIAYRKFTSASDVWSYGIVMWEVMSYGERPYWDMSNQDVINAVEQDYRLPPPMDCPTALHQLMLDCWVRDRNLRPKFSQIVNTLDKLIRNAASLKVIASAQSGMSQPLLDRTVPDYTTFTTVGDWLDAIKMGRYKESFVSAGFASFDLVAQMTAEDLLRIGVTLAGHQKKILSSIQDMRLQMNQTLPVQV
T2 sequence (O14757 whole entry): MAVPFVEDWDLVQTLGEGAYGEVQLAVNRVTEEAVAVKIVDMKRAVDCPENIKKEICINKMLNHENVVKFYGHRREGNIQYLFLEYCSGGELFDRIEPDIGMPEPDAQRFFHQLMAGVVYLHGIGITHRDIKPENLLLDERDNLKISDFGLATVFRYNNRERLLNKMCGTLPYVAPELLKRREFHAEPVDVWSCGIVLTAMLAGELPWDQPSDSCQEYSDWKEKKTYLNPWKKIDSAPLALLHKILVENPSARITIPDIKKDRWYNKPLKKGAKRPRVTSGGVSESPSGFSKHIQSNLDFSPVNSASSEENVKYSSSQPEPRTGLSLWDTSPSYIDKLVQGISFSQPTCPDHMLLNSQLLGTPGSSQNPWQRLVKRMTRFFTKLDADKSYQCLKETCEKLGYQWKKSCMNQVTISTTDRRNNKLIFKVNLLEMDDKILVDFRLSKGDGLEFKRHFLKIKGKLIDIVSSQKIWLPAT
T1 sequence (P11309 whole entry): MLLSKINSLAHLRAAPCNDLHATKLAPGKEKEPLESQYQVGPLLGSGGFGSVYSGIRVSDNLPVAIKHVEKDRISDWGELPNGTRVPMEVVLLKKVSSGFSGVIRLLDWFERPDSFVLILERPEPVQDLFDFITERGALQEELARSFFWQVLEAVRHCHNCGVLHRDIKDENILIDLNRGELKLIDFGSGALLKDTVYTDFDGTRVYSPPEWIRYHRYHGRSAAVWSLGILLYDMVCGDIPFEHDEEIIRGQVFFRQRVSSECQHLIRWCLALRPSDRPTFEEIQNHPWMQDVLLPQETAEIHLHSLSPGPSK

On to `COc1cc2nccc(Oc3ccc(NC(=O)NC4CC4)c(Cl)c3)c2cc1C(N)=O` [Lenvatinib, Lenvatinib mesilate], for which the IC50 in data set [1] is above 10 µM; in data set [2], above 10 µM; in [3], above 10 µM; in data set [4], 0.078 µM; in [5] it was above 10 µM; in [6], above 10 µM. Also, the IC50 in [9] and in [10] was above 10 µM each time. Further, the “macroscopic changes or loss of body weight” value in [7] is on record as “no macroscopic changes or loss of body weight were observed”. For the same compound, the “phosphorylation of RET and of ERK1/2” value in data set [8] is given as “inhibited”.

For orientation: IC50 means the concentration that gives 50% inhibition.
